Source: patent US11571421B2, “GABAA positive allosteric modulator compounds for treatment of itch and/or dermatitis” (NeuroCycle Therapeutics, Inc., priority 2018, dated 2023)
“And” between values parts separate entries of the source, which are not always exact repeats. Equal entries are not always repeated.

Legend:
Type in all cases: in vivo
Male C57BL/6 Mice = test: Sedative effects, open field arena activity (Example 4); details: per oral 1, 3, 10, 30 and 100 mg/kg; recorded for one hour starting one hour after injection
Method: In order to exclude any sedative effects PF-06372865 might have on mice, a dose-response experiment is included. The mice receive per oral injections of PF-06372865 in varying doses (vehicle, 1, 3, 10, 30 and 100 mg/kg). After injection, the mice are placed in an open field arena and their activity is recorded for one hour starting one hour after injection.

[1] = system: Bile Acid Itch Model in Male C57BL/6 Mice; test: Bile acid (deoxycholic acid) induced itch model (Example 9); details: 10 mg/kg oral gavage 90 min before deoxycholic acid (25 μg)
Method: In order to assess the antipruritic effect of PF-06372865 in another clinically relevant disease, the bile acid induced itch model is used. In the bile acid induced itch model, the fur at the base of the neck is shaved, and mice are placed in individual cylinders on a glass shelf. Mice are acclimatized to the experimental room, restraint apparatus and investigators for 2-hour periods on 2 successive days before experiments. The mice are dosed with 10 mg/kg PF-06372865 by oral gavage ninety (90) minutes before they are injected with deoxycholic acid. Deoxycholic acid (25 μg in DMSO), is administered by intradermal injection at the nape of the neck. Scratching behavior is quantified by 2 observers unaware of tested agents. A scratch is defined as lifting the hind limb to the injection site and then a placing of the paw on the floor, regardless of the number of strokes. If counts differed by greater than 5 scratches over a 30-minute period, both observers reevaluate the records. The number of scratching bouts directed to the nape of the neck between 15 to 210 min after injection are recorded.

[2] = system: Chloroquine (CQ)-Induced Itch Model in Male C57BL/6 Mice; test: Chloroquine Induced Itch Model, PF-06372865 (Example 1)
Method: PF-06372865 was evaluated as an antipruritic and/or antidermatitis agent using a Chloroquine Induced Itch Model in male C57BL/6 mice.
Male C57BL/6 Mice (8-10 weeks) were used in the study. Animals were procured from CRL, Hylasco (CPSCEA registered animal supplier).
Mice were housed one per cage and maintained at controlled environmental conditions with 12-h light and dark cycles. The temperature and humidity of the room were maintained between 22±3° C. and 55±5%, respectively. The maximum and minimum temperature and relative humidity in the experimental rooms were recorded once daily. […]
PF-06372865 was weighed into a clean mortar. Liquefied Solutol (i.e., Polyoxyl 15 Hydroxystearate) was added drop wise and triturated using a pestle for 2-3 minutes, then Glycerol formal was added and mixed in same fashion. The volume was made up by slowly adding the required volume of water. The resulting mixture was mixed well using mild vortexing to provide a homogeneous suspension. (Details in below chart)
27 mg of chloroquine phosphate was weighed in a clean glass container. 6 mL PBS was added, and the resulting mixture was mixed well using mild vortexing to form the desired strength solution.
The right-side cheek area of all the animals was shaved with animal clippers 1 day prior to the experiment. Animals were randomized into different treatment groups (n=9/group) based on body weight to avoid variability in weights across groups. NCT10004 Phosphate and PF-06372865 formulations and chloroquine phosphate solution were prepared on the day of the experiment.
Animals were dosed per oral with respective treatment group using a dose volume of 10 ml/kg. Times of dosing were recorded. Immediately after compound treatment, animals were kept in an empty transparent chamber (23 cm length×17 cm width) for acclimatization and observation.
Ninety (90) minutes post compound dosing, 50-μl of chloroquine phosphate solution (a 200-μg dose) was injected intracutaneously into the animal's right cheek. Animals were returned to the same chamber for observation. Animals were observed by an observer blind to the treatment group for a period of 30 minutes post chloroquine injection. Total number of bouts of scratching directed at the ipsilateral cheek were recorded for 30 minutes.

[3] = 0.3 mg/kg PO, individual animals

`CCn1cnc2c(-c3ccc(F)c(-c4ccc(S(=O)(=O)CC)cc4OC)c3)cnnc21` [PF-06372865] was tested, and the “open field activity compared to vehicle” value (Male C57BL/6 Mice) was “significant increase in activity”, the “scratching bouts compared to vehicle injection” value [1] was “significant reduction in scratching bouts” and the “Scratching bouts (Nos.) in 30 min, 0-5 min” value (“Scratching bouts … 0-5 min” below) ([2]; 0.3 mg/kg PO, MEAN, N=9) was 2.22 Nos. The “Scratching bouts (Nos.) in 30 min, 5-10 min” value (“Scratching bouts … 5-10 min” below) ([2]; 0.3 mg/kg PO, MEAN, N=9) was 6.67 Nos, the “Scratching bouts (Nos.) in 30 min, 10-15 min” value (“Scratching bouts … 10-15 min” for short) ([2]; 0.3 mg/kg PO, MEAN, N=9) was 26.22 Nos and the “Scratching bouts (Nos.) in 30 min, 15-20 min” value (shortened to “Scratching bouts … 15-20 min”) ([2]; 0.3 mg/kg PO, MEAN, N=9) was 24.67 Nos. The “Scratching bouts (Nos.) in 30 min, 20-25 min” value (“Scratching bouts … 20-25 min” below) ([2]; 0.3 mg/kg PO, MEAN, N=9) was 21.00 Nos, the “Scratching bouts (Nos.) in 30 min, 25-30 min” value (from here on “Scratching bouts … 25-30 min”) ([2]; 0.3 mg/kg PO, MEAN, N=9) was 0.00 Nos and the “Total Scratching bouts” value ([2]; 0.3 mg/kg PO, MEAN, N=9) was 80.78 Nos./30 min. The “Scratching bouts … 0-5 min” value [2, 3] was 0 Nos. (6×) and 1 Nos. and 15 Nos. and 4 Nos, the “Scratching bouts … 5-10 min” value [2, 3] was 56 Nos. and 0 Nos. (6×) and 1 Nos. and 3 Nos and the “Scratching bouts … 10-15 min” value [2, 3] was 47 Nos. and 0 Nos. (3×) and 19 Nos. and 46 Nos. and 76 Nos. and 21 Nos. and 27 Nos. The “Scratching bouts … 15-20 min” value [2, 3] was 10 Nos. and 25 Nos. (2×) and 39 Nos. and 13 Nos. and 36 Nos. and 31 Nos. and 11 Nos. and 32 Nos, the “Scratching bouts … 20-25 min” value [2, 3] was 0 Nos. (3×) and 49 Nos. and 33 Nos. and 27 Nos. (2×) and 24 Nos. and 29 Nos and the “Scratching bouts … 25-30 min” value [2, 3] was 0 Nos. The “Total Scratching bouts” value [2, 3] was 113 Nos./30 min and 74 Nos./30 min and 25 Nos./30 min and 72 Nos./30 min and 33 Nos./30 min and 110 Nos./30 min and 149 Nos./30 min and 56 Nos./30 min and 95 Nos./30 min, the “Scratching bouts … 0-5 min” value ([2]; 1 mg/kg PO, MEAN, N=9) was 1.22 Nos and the “Scratching bouts … 5-10 min” value ([2]; 1 mg/kg PO, MEAN, N=9) was 20.56 Nos. The “Scratching bouts … 10-15 min” value ([2]; 1 mg/kg PO, MEAN, N=9) was 9.11 Nos, the “Scratching bouts … 15-20 min” value ([2]; 1 mg/kg PO, MEAN, N=9) was 23.11 Nos and the “Scratching bouts … 20-25 min” value ([2]; 1 mg/kg PO, MEAN, N=9) was 8.33 Nos. For the same compound, the “Scratching bouts … 25-30 min” value ([2]; 1 mg/kg PO, MEAN, N=9) was 8.11 Nos, the “Total Scratching bouts” value ([2]; 1 mg/kg PO, MEAN, N=9) was 70.44 Nos./30 min and the “Scratching bouts … 0-5 min” value ([2]; 1 mg/kg PO, individual animals) was 0 Nos. (6×) and 1 Nos. and 8 Nos. and 2 Nos. For the same compound, the “Scratching bouts … 5-10 min” value ([2]; 1 mg/kg PO, individual animals) was 22 Nos. and 0 Nos. (2×) and 18 Nos. (2×) and 13 Nos. and 62 Nos. and 49 Nos. and 3 Nos, the “Scratching bouts … 10-15 min” value ([2]; 1 mg/kg PO, individual animals) was 9 Nos. (2×) and 0 Nos. (3×) and 13 Nos. and 1 Nos. and 4 Nos. and 46 Nos and the “Scratching bouts … 15-20 min” value ([2]; 1 mg/kg PO, individual animals) was 41 Nos. and 14 Nos. and 28 Nos. (2×) and 16 Nos. and 45 Nos. and 25 Nos. and 11 Nos. and 0 Nos. For the same compound, the “Scratching bouts … 20-25 min” value ([2]; 1 mg/kg PO, individual animals) was 28 Nos. and 0 Nos. (5×) and 18 Nos. and 8 Nos. and 21 Nos, the “Scratching bouts … 25-30 min” value ([2]; 1 mg/kg PO, individual animals) was 6 Nos. and 25 Nos. and 4 Nos. and 0 Nos. (4×) and 14 Nos. and 24 Nos and the “Total Scratching bouts” value ([2]; 1 mg/kg PO, individual animals) was 106 Nos./30 min and 39 Nos./30 min and 81 Nos./30 min and 26 Nos./30 min and 93 Nos./30 min and 95 Nos./30 min and 71 Nos./30 min and 22 Nos./30 min and 101 Nos./30 min. The “Scratching bouts … 0-5 min” value ([2]; 3 mg/kg PO, MEAN, N=9) was 4.89 Nos, the “Scratching bouts … 5-10 min” value ([2]; 3 mg/kg PO, MEAN, N=9) was 3.89 Nos and the “Scratching bouts … 10-15 min” value ([2]; 3 mg/kg PO, MEAN, N=9) was 11.44 Nos. For the same compound, the “Scratching bouts … 15-20 min” value ([2]; 3 mg/kg PO, MEAN, N=9) was 9.89 Nos, the “Scratching bouts … 20-25 min” value ([2]; 3 mg/kg PO, MEAN, N=9) was 4.33 Nos and the “Scratching bouts … 25-30 min” value ([2]; 3 mg/kg PO, MEAN, N=9) was 3.44 Nos. The “Total Scratching bouts” value ([2]; 3 mg/kg PO, MEAN, N=9) was 37.89 Nos./30 min.
